Data as given in EP2305680A2, “Novel salts of (1S,4R)-cis-4-[2-amino-6-(cyclopropylamino)-9H-purin-9-yl]-2-cyclopentene-1-methanol” (AUROBINDO PHARMA LIMITED, priority 2009, dated 2011).
In brackets after ≈: the same amount, converted by molar mass. Like-named read-outs stand apart in the source and are kept apart here.

Assay: saturation solubility in various solvent systems
Format: physicochemical
Method: Solubility is the property of a solid, liquid, or gaseous chemical substance called solute to dissolve in a liquid solvent to form a homogeneous solution of the solute in the solvent. […] The saturation solubility of the compounds according to the present invention is measured in various solvent systems including simulated gastric fluid, pH 4.5 buffer, pH 6.8 buffer solution and pH 7.2 buffer solution. The compounds according to the present invention show better solubility as compared to abacavir sulphate in all solvent systems. Table- 1: Comparison of saturation solubility of Abacavir malonate with Abacavir sulphate (marketed salt)

[1] = solvent: pH 4.5 Sodium acetate buffer
[2] = solvent: pH 6.8 Phosphate buffer
[3] = solvent: pH 7.2 Phosphate buffer

Row | Solubility (0.1 N HCl, simulated gastric fluid, thermodynamic from solid, solvent: O.1N HC1, read-out: Solubility) [mg/mL] | Solubility [1] [mg/mL] | Solubility [2] [mg/mL] | Solubility [3] [mg/mL] | Solubility (water, thermodynamic from solid, solvent: Water, read-out: Solubility) [mg/mL] | Solubility (0.01n hcl, solvent: O.O1N HC1, read-out: Solubility) [mg/mL] | Solubility (0.1n hcl, simulated gastric fluid, thermodynamic from solid, solvent: O.1N HC1, read-out: Solubility) [mg/mL] | Solubility (solvent: Water) [mg/mL] | SMILES
1 | 93.1 | 112.6 | 89.5 | 124.0 | 89.2 | – | – | – | Nc1nc(NC2CC2)c2ncn([C@H]3C=C[C@@H](CO)C3)c2n1 [Abacavir Sulphate, reference compound]
2 | – | 403.6 (≈ 1410 mM) | 425.2 (≈ 1480 mM) | 453.5 (≈ 1580 mM) | – | 733 (≈ 2560 mM) | 368 (≈ 1290 mM) | 116.2 (≈ 406 mM) | Nc1nc(NC2CC2)c2ncn([C@H]3C=C[C@@H](CO)C3)c2n1 [Abacavir Malonate, (1S,4R)-4-[2-AMINO-(6-CYCLOPROPYLAMINO)-9H-PURIN-9-YL]-2-CYCLOPENTENE-1-METHANOL MALONATE]
